Data taken from patent publication US20050079180A1, “Manipulatin of oocyte maturation and male germ cell survival” (priority 2003, published 2005).
Where a SMILES comes first, the peptide text is derived from it. Where no end group is shown, it is not given here. [ ]: non-standard residue; d: D form. d(hArg(Et2)) = CCN=C(NCC)NCCCC[C@@H](N)C(=O)O; hArg(Et2) = CCN=C(NCC)NCCCC[C@H](N)C(=O)O; dPhe(4-Cl) = N[C@H](Cc1ccc(Cl)cc1)C(=O)O; d2Nal = N[C@H](Cc1ccc2ccccc2c1)C(=O)O; d3Pal = N[C@H](Cc1cccnc1)C(=O)O

Tests used:
male germ cells = assay: Gonadotropin deprivation model: testis apoptotic DNA fragmentation; format: in vivo, rat
Method: (§1) Male Sprague-Dawley rats at 28 days of age were treated subcutaneously with GnRH antagonist (250 μg/kg/day) to suppress pituitary gonadotropin secretion. […] Animals were killed 5 days after initial treatment and organ weight determined. Testes were stored at −70° C. before RNA or DNA extraction or fixed in Bouin's solution for in situ labeling of DNA ends.
DNA from whole testis was isolated and quantitated with spectrophotometry at 260 nm. Aliquots of DNA (500 ng) from each sample were labeled at 3′-ends with 32P-dideoxy-ATP (3,000 Ci/mmol: Amersham. Arlington Heights, Ill.) using terminal transferase (25 U/sample; Boehringey-Mannheim, Indianapolis, Ind.) as described. Labeled samples were fractionated through 2% agarose gels. After electrophoresis, gels were dried for 2 h in a slab-gel dryer without heat and exposed to Kodak X-OMAT AR films (Eastman Kodak Co., Rochester, N.Y.) at −70 C. After autoradiography, portions of each lane corresponding to DNA less than 10 kilobases (kb) were isolated and counted in a y-spectrometer for estimating the degree of intenucleosomal DNA fragmentation. For in situ DNA 3′-end labeling, fixed testicular tissues were embedded in paraffin, and cut in 3 μm sections. To detect apoptotic DNA fragmentation, the in situ cell death detection kit (Roche Diagnostics, Mannheim, Germany) was used according to manufacturer's instruction and sections counterstained with hematoxylin.

INSL3 message = assay: Gonadotropin deprivation model: testis INSL3 mRNA (Northern blot); format: in vivo, rat; details: FIG. 4B
Method: as §1

testis = format: in vivo, rat
Method: C) Analysis of apoptotic DNA fragmentation in testes using 3′-end DNA labeling with the terminal transferase, followed by gel fractionation and autoradiography. D) In situ staining of apoptotic DNA fragmentation in seminiferous tubules using the TUNNEL method.
as §1

cumulus-enclosed oocytes = assay: Germinal vesicle breakdown in cultured cumulus-enclosed oocytes; format: cell-based, rat; details: for oocyte maturation (germinal vesicle breakdown): cultured cumulus-enclosed oocytes from preovulatory follicles, FIG. 1D
Method: (§2) Cumulus-enclosed oocytes (CEO) were collected and cultured as described (Vaknin et al. PMID: 11133687). Briefly, female rats at 26 d of age were injected with 15 IU pregnant mare serum gonadotropin (PMSG). After 48-50 h, ovaries were dissected in Leivovitz's L-15 medium (Invitrogen Corp., Carlsbad, Calif.) supplemented with 5% fetal bovine serum and 100 μg/ml of penicillin and streptomycin. The CEOs were collected by puncturing the largest ovarian follicles in the L15 medium containing 0.25 mM of MIX within 20 min, washed twice in L15 medium without MIX and transfer to test medium. The CEO were cultured with or without different doses of rat INSL3 in L15 medium without both FBS and IBMX. For controls, the CEOs were cultured in L15 medium with IBMX. At the end of culture, the occurrence of germinal vesicle breakdown (GVBD) in oocyte was examined after removing cumulus cells surrounding CEO by a small-bore pipette under Hoffman modulation contrast microscopy (Nikon Inc., Tokyo, Japan). For preovulatory follicles, follicles were excised from the ovary after PMSG treatment for 48 h. The follicles, 20-30 per vial, were cultured with or without different doses of rat INSL3 or LH in L15 medium without FBS. The vials were flushed at the start of the culture with O2/N2 (1/1) and cultured at 37C with gently shaking. After culture, individual CEO was dissected from each follicle to examine the occurrence of GVBD. For cAMP determination, 20 to 30 denuded oocytes were cultured with or without rat INSL3 (10 nM) in L15 medium containing 10 μM of cilostamide with or without 50 μM of forskolin. After treatment, oocytes were collected in 2 μl of medium, frozen and thawed to break the cells before acetylation of samples with triethylamine and acetic anhydride (3:1). Intra-oocyte cyclic AMP levels were determined by radioimmunoassay as previously described (Davoren, Hsuch, 1985).

recombinant LGR8 = target: T1, recombinant LGR8 (Homo sapiens, UniProt Q8WXD0); details: 293T cells expressing recombinant LGR8; cited from earlier work
T1 construct: expressed in transfected cells; host or cells: human 293T cells, calcium phosphate transfection

gubernacular cells = details: cited from earlier work
[1] = system: oocytes of preovulatory follicles; assay: In vivo oocyte maturation after intrabursal injection in PMSG-primed rats; parameters: species or system rat; details: FIG. 3C
Method: To study the effect of INSL3 on oocyte maturation in vivo, intrabursal injection was performed (Vaknin et al. PMID: 11133687). Immature PMSG-treated rats were lightly anesthetized by ether, and one of the ovaries was exteriorized through a small lumbosacral incision. Rat INSL3, dissolved in 100 μl of PBS, was injected through a 30-gauge needle threaded into the ovarian bursa via the adjoining fat pad. After injection, the ovary was replaced into the abdominal cavity, and skin was clipped. Eight hours later, CEOs were collected by puncturing the largest ovarian follicles to examine the occurrence of oocyte GVBD.

preovulatory follicles = assay: Oocyte maturation (GVBD) in cultured intact preovulatory follicles; format: cell-based, rat
Method: as §2, with “Briefly,” for “Cumulus-enclosed oocytes (CEO) were collected and cultured as described (Vaknin et al. PMID: 11133687). Briefly,”, “For preovulatory follicles, follicles were excised from the ovary after PMSG treatment for 48 h. The follicles, 20-30 per vial, were cultured with or without different doses of rat INSL3 or LH in L15 medium without FBS.” left out, “(3:1).” for “(3:1). Intra-oocyte cyclic AMP levels were determined by radioimmunoassay as previously described (Davoren, Hsuch, 1985).”

[2] = system: seminiferous tubular cells; assay: cAMP production by seminiferous tubular cells; format: cell-based, rat; details: FIG. 2D
Method: Seminiferous tubular cells were treated with different hormones or forskolin (FSK) for 12 h before cAMP determination. Some cells were also pretreated with PT before hormonal treatment (filled circles) to suppress Gi activity. B: basal.
Seminiferous tubular cells were isolated by the method of Nagao (1989) In Vitro Cell Dev Biol 25:1088-1098, with modifications. Briefly, testes were decapsulated and incubated for 15 minutes in PBS containing 0.25% collagenase with occasional shaking. After collecting interstitial cells released from the preparation, seminiferous tubules were washed, and incubated with 0.25% trypsin to disperse tubular cells. The resulting cell suspension was filtered through 100 μm nylon mesh to remove cell aggregates and tissue debris, after which the tubular cells were collected by centrifugation.
Total cAMP in each well was measured in triplicate with primary cultured cells by a specific radioimmunoassay as previously described by Davoren and Hsuch (1985) Biol Reprod 33:37-52. All experiments were repeated at least four times.

oocyte = assay: Gonadotropin induction of ovulation with pertussis toxin co-treatment

T1 sequence (Q8WXD0 whole entry): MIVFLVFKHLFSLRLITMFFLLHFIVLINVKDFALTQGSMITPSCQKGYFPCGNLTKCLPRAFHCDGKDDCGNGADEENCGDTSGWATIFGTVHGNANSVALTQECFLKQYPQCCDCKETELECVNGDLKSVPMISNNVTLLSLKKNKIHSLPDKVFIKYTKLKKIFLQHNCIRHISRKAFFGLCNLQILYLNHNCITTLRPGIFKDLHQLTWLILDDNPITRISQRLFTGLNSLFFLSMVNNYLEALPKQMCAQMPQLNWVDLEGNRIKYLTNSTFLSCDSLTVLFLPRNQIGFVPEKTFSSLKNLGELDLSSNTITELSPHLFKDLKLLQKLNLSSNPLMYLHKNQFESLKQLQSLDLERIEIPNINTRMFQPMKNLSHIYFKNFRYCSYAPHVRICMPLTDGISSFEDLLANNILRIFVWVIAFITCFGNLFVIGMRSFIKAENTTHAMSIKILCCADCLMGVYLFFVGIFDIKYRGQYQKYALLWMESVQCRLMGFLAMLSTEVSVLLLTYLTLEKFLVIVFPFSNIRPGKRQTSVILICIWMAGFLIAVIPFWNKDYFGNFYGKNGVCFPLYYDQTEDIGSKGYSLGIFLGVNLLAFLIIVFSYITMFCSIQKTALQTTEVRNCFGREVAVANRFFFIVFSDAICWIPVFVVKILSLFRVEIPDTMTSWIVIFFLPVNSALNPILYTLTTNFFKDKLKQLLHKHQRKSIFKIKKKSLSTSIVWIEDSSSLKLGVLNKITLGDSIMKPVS

CCN=C(NCC)NCCCC[C@H](NC(=O)[C@H](CC(C)C)NC(=O)[C@@H](CCCCNC(=NCC)NCC)NC(=O)[C@H](Cc1ccc(O)cc1)NC(=O)[C@H](CO)NC(=O)[C@@H](Cc1cccnc1)NC(=O)[C@@H](Cc1ccc(Cl)cc1)NC(=O)[C@@H](Cc1ccc2ccccc2c1)NC(C)=O)C(=O)N1CCC[C@H]1C(=O)N[C@H](C)C(N)=O [GnRH antagonist, ganirelix acetate] (Ac-[d2Nal][dPhe(4-Cl)][d3Pal]SY[d(hArg(Et2))]L[hArg(Et2)]P[dA]-NH2)
in situ staining of DNA fragments in seminiferous tubules (male germ cells; GnRH antagonist alone, FIG. 4D panel e): the majority of tubules showed labeled cells corresponding to meiotic pachytene spermatocytes and postmeiotic spermatids | apoptotic DNA fragmentation in testis (male germ cells; GnRH antagonist alone, internucleosomal DNA fragmentation, FIG. 4C): increased apoptotic DNA fragmentation | testis INSL3 message levels (INSL3 message): decreased INSL3 message levels | testis weight (testis; immature rats, GnRH antagonist alone, five days, FIG. 4A): decreased testis weight | weight change in kidney or heart (testis; rat, in vivo): no weight change in kidney or heart was detected

CC(C)Cn1c(=O)n(C)c(=O)c2[nH]cnc21 [MIX, reference compound]
oocyte maturation (germinal vesicle breakdown) (cumulus-enclosed oocytes): completely blocked oocyte maturation

INSL3: Insulin-like hormone superfamily member with B chain and A chain; rat INSL3 chemically synthesized; ligand of LGR8 (chain 1 QPPEARAKLCGHHLVRALVRVCGGPRWSPEA; chain 2 SVATNAVHRCCLTGCTQQDLLGLCPH; ends and bridges not checked; cysteine pairing not given here)
apoptosis induced by GnRH antagonist (internucleosomal DNA fragmentation) (male germ cells; co-treatment with GnRH antagonist, FIG. 4C): blocked apoptosis | in situ staining of DNA fragments in seminiferous tubules (male germ cells; co-treatment with GnRH antagonist, FIG. 4D panel f): blocked the apoptosis-inducing action of the GnRH antagonist | cAMP production (recombinant LGR8): stimulatory effects | cAMP production (gubernacular cells): stimulatory effects | oocyte maturation (germinal vesicle breakdown in preovulatory follicles) ([1]; 8 h after intrabursal injection): induced oocyte maturation | follicle rupture ([1]; intrabursal treatment): not follicle rupture | oocyte maturation (preovulatory follicles; intact preovulatory follicles, FIG. 1F): induced oocyte maturation in a dose-dependent manner | basal cAMP production ([2]; INSL3 alone, 12 h): basal cAMP production was not affected | cAMP increases induced by forskolin ([2]; INSL3 with forskolin, 12 h): prevented cAMP increases induced by forskolin in a dose-dependent manner | cAMP levels stimulated by FSH ([2]; co-treatment of INSL3 with FSH): did not alter cAMP levels | effect on testis weight decrease caused by GnRH antagonist (testis; co-treatment with GnRH antagonist, five days, FIG. 4A): partially blocked | oocyte maturation (germinal vesicle breakdown) (cumulus-enclosed oocytes): further augmented oocyte maturation in a dose-dependent manner | time after culture at which augmentation of oocyte maturation was evident (cumulus-enclosed oocytes; time-course, cumulus-enclosed oocytes, FIG. 1E): 2 h

pertussis toxin
effect on INSL3 induction of oocyte maturation (preovulatory follicles; pertussis toxin with INSL3, FIG. 1G): partially blocked the INSL3 induction of oocyte maturation | effect on LH induction of oocyte maturation (preovulatory follicles; pertussis toxin with LH, FIG. 1G): partially blocked the LH induction of oocyte maturation at lower (50 and 100 ng/ml), but not higher, doses of LH | follicle rupture (oocyte): without affecting follicle rupture | gonadotropin induction of oocyte maturation (oocyte): blocks the gonadotropin induction of oocyte maturation | effect on the suppressive effect of INSL3 on cAMP ([2]; pertussis toxin pretreatment): suppressive effect of INSL3 was blocked
